Data taken from patent publication US20260199367A1, “PLK1 DEGRADATION INDUCING COMPOUNDS WITH INCREASED RIGIDITY” (UPPTHERA, INC., priority 2022, published 2026).

Key:
Assay type in all cases: cell-based
NCI-H69 (H69) cell line = test: Cell viability assay for NCI-H69 cell line; settings: Homo sapiens, NCI-H69, 120 h, 5 days, EZ-Cytox, 0.46-3000 nM
Text: (§1) The NCI-H69 (hereafter H69) and NCI-H526 (hereafter H526) cell lines were purchased from Korea Cell Line Bank (KCLB, Seoul, Korea). For cell culture, RPMI 1640 (Gibco, Cat. No. 22400-089; Lot. No. 2537146), FBS (Gibco, Cat. No. 16000-044; Lot. No. 2511328P), Penicillin/Streptomycin (PS) (Gibco, Cat. No. 15140-122; Lot. No. 2441887), 75T cell culture flask (SPL, Cat. No. 71075), 175T cell culture flask (SPL, Cat. No. 71175), 96-well cell culture plate (SPL, Cat. No. 30096), PBS pH 7.4 (Gibco, Cat. No. 10010-023; Lot. No. 2509235), TrypLE™ Express (Gibco, Cat. No. 12605-010; Lot. No. 2323417), Cell Counter (Hematocytometer)(As one, Cat. No. 4-458-01), and 0.4% Trypan Blue Solution (DYNEBIO, Cat. No. CBT3710; Lot. No. 20221111) were used.
(§2) The compounds of Examples were completely dissolved in DMSO (Sigma-Aldrich Cat. No. D2438, Lot. No. RNBL7287) and used in the experiment. 3×10^4 cells were seeded for each well of a 96-well plate (SPL), and the cells were cultured in total volume of 150 μl. Each compound was diluted 3-folds from the highest concentration of 3000 nM to the lowest concentration of 0.46 nM. After treating the compound to each well to make the total volume of 200 μl, it was cultured in a CO2 incubator (Thermo Fisher Science, Cat. No. 4111) for 5 days. Then, after treating EZ-Cytox (DOGEN, Cat.NO. EZ-3000, Lot. No. DLS2308) 20 μl in each well, it was cultured in CO2 incubator for 4 hours. The absorbance of the completely cultured sample was measured by setting the wavelength of a plate reader (BMG Labtech, CLARIOstar Plus) to […], and was measured after shaking for 3 minutes in a plate reader before measurement.
(§3) (A: IC50 is less than 20 nM, B: IC50 is 50 nM or less, C: IC50 is 100 nM or less)

[1] = tested on: NCI-H526 (H526) cell line; test: Cell viability assay for NCI-H526 cell line; settings: Homo sapiens, NCI-H526, 120 h, 5 days, EZ-Cytox, 0.46-3000 nM
Text: as §1, §2, §3

PLK1 = target: T1, PLK1 (Homo sapiens, UniProt P53350); test: Luciferase assay for PLK1 in HeLa LgBit (PLK1-HiBit KI) cell line; settings: released after thymidine block, compound 300 nM, luminescence after 9 hours
T1 construct: endogenous in cells; host or cells: HeLa LgBit (PLK1-HiBit KI): HeLa cells stably expressing LgBit, with CRISPR/Cas9 knock-in of HiBit at the endogenous PLK1 locus
T1 sequence (P53350 whole entry): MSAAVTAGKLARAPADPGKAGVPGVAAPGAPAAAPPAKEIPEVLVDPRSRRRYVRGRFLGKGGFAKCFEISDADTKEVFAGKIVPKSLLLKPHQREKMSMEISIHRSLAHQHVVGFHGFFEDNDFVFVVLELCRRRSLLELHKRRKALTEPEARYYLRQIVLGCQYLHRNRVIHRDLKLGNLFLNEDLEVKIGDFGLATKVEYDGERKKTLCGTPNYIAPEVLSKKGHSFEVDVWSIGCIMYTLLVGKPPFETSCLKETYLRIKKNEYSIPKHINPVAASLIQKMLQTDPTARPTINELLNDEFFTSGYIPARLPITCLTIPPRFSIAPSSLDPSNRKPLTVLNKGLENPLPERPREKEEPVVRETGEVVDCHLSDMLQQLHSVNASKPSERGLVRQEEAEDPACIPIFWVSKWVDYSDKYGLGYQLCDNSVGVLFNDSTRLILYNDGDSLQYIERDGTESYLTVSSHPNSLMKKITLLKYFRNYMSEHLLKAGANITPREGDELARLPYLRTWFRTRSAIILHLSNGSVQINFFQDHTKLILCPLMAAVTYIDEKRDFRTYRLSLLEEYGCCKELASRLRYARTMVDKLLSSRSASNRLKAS
Method: A HeLa cell line in which the LgBit vector was transfected and expressed stably was prepared. Then, after constructing gRNA and donor to express the HiBit amino acid sequence behind the C-terminal of the PLK1 gene, which was inherent in the cell, it was inserted into the cell together with a vector capable of expressing CRISPR/Cas9. Only the cells in which the insertion was completed and knock-in had progressed were selected, sub-cultured and used.
The compounds of Examples were completely dissolved in DMSO (Sigma-Aldrich Cat. No. D2438, Lot. No. RNBL5438) and used in the experiment.
In the case of HeLa LgBit (Plk1-HiBit KI), the compounds were treated after being released after thymidine block, and the process was as follows. Thymidine (Sigma-Aldrich Cat. No. T9250-5G) was completely dissolved in ddH2O and used in the experiment. For thymidine block, the products were treated with 2 mM of thymidine and then incubated for 24 hours. For release and chemical treatment, the medium was suctioned and washed with 1×PBS. TrypLE™ was added and incubated in 37° C. CO2 incubator (Thermo Fisher Science, Cat. No. 4111) for 5 mins. Cells neutralized by adding complete media were counted through a counter. For each well of a 96-well culture plate (SPL), 3.3×10^4 cells and a total medium volume of 150 μl were seeded and incubated in a CO2 incubator.
Each cell line was incubated in a CO2 incubator for 18 hours, and Endurazine (Promega, Cat. No. N257B) was added to each well to make up 4% of the total volume. After adding compounds of Examples in a 96-well white plate (SPL) to a concentration of 300 nM, the wavelength of the plate reader (BMG Labtech, CLARIOstar Plus) was set to 470-480 nM, and then the luminescence was tracked in real time.

| Value (luminescence value, PLK1-HiBit) (PLK1) | Compound | IC50 (NCI-H69 (H69) cell line) | IC50 [1] |
| --- | --- | --- | --- |
| 0.267 | COc1cc(C(=O)NC2CCN(C(=O)CCN3CCN(c4ccc(NC5CCC(=O)NC5=O)cc4)CC3)CC2)ccc1Nc1ncc2c(n1)N(C1CCCC1)CC1(CC1)C(=O)N2C (stereo not drawn) [Compound 29, 4-((9′-cyclopentyl-5′-methyl-6′-oxo-5′,6′,8′,9′-tetrahydrospiro[cyclopropane-1,7′-pyrimido[4,5-b][1,4]diazepin]-2′-yl)amino)-N-(1-(3-(4-(4-((2,6-dioxopiperidin-3-yl)amino)phenyl)piperazin-1-yl)propanoyl)piperidin-4-yl)-3-methoxybenzamide] | ≤ 100 nM | ≤ 50 nM |
| 0.250 | COc1cc(C(=O)NC2CCC(NCC3CCN(c4ccc(C5CCC(=O)NC5=O)cc4F)CC3)CC2)ccc1Nc1ncc2c(n1)N(C1CCCC1)CC(F)(F)C(=O)N2C (stereo not drawn) [Compound 30, 4-((9-cyclopentyl-7,7-difluoro-5-methyl-6-oxo-6,7,8,9-tetrahydro-5H-pyrimido[4,5-b][1,4]diazepin-2-yl)amino)-N-((1r,4r)-4-(((1-(4-(2,6-dioxopiperidin-3-yl)-2-fluorophenyl)piperidin-4-yl)methyl)amino)cyclohexyl)-3-methoxybenzamide] | ≤ 50 nM | ≤ 50 nM |
| 0.241 | COc1cc(C(=O)NN2CCC(C(N)CN3CCN(c4ccc(C5CCC(=O)NC5=O)cc4F)CC3)CC2)ccc1Nc1ncc2c(n1)N(C(C)C)CC(F)(F)C(=O)N2C (stereo not drawn) [Compound 31, N-(4-(1-amino-2-(4-(4-(2,6-dioxopiperidin-3-yl)-2-fluorophenyl)piperazin-1-yl)ethyl)piperidin-1-yl)-4-((7,7-difluoro-9-isopropyl-5-methyl-6-oxo-6,7,8,9-tetrahydro-5H-pyrimido[4,5-b][1,4]diazepin-2-yl)amino)-3-methoxybenzamide] | ≤ 50 nM | ≤ 50 nM |
| 0.206 | CC[C@@H]1C(=O)N(C)c2cnc(Nc3ccc(C(=O)NC4CCN(C(=O)CCN5CCN(c6ccc(NC7CCC(=O)NC7=O)cc6)CC5)CC4)cc3OC)nc2N1C1CCCC1 (stereo partly drawn) [Compound 24, 4-(((R)-8-cyclopentyl-7-ethyl-5-methyl-6-oxo-5,6,7,8-tetrahydropteridin-2-yl)amino)-N-(1-(3-(4-(4-((2,6-dioxopiperidin-3-yl)amino)phenyl)piperazin-1-yl)propanoyl)piperidin-4-yl)-3-methoxybenzamide] | < 20 nM | < 20 nM |

Continued, molecule first:

| Compound | Value (luminescence value, PLK1-HiBit) (PLK1) | IC50 (NCI-H69 (H69) cell line) | IC50 [1] |
| --- | --- | --- | --- |
| CC[C@@H]1C(=O)N(C)c2cnc(Nc3ccc(C(=O)NCC4CCN(CC5CCN(c6ccc(NC7CCC(=O)NC7=O)cc6)CC5)CC4)cc3OC)nc2N1C1CCCC1 (stereo partly drawn) [Compound 13, 4-(((R)-8-cyclopentyl-7-ethyl-5-methyl-6-oxo-5,6,7,8-tetrahydropteridin-2-yl)amino)-N-((1-((1-(4-((2,6-dioxopiperidin-3-yl)amino)phenyl)piperidin-4-yl)methyl)piperidin-4-yl)methyl)-3-methoxybenzamide] | 0.165 | ≤ 100 nM | < 20 nM |
| CC[C@@H]1C(=O)N(C)c2cnc(Nc3ccc(C(=O)NC4CCN(C(=O)C(N)CN5CCN(c6ccc(C7CCC(=O)NC7=O)cc6)CC5)CC4)cc3OC(F)(F)F)nc2N1C1CCCC1 (stereo partly drawn) [Compound 10, N-(1-(2-amino-3-(4-(4-(2,6-dioxopiperidin-3-yl)phenyl)piperazin-1-yl)propanoyl)piperidin-4-yl)-4-(((R)-8-cyclopentyl-7-ethyl-5-methyl-6-oxo-5,6,7,8-tetrahydropteridin-2-yl)amino)-3-(trifluoromethoxy)benzamide] | 0.282 | ≤ 100 nM | ≤ 50 nM |
| CC[C@@H]1C(=O)N(C)c2cnc(Nc3ccc(C(=O)NC4CCC(N5CCN(CCc6ccc(NC7CCC(=O)NC7=O)cc6)CC5)CC4)cc3OC)nc2N1C1CCCC1 (stereo partly drawn) [Compound 4, 4-(((R)-8-cyclopentyl-7-ethyl-5-methyl-6-oxo-5,6,7,8-tetrahydropteridin-2-yl)amino)-N-((1r,4R)-4-(4-(4-((2,6-dioxopiperidin-3-yl)amino)phenethyl)piperazin-1-yl)cyclohexyl)-3-methoxybenzamide] | 0.157 | < 20 nM | < 20 nM |
| CC[C@@H]1C(=O)N(C)c2cnc(Nc3ccc(C(=O)NC4CCC(N5CCC(CNc6ccc(C7CCC(=O)NC7=O)cc6)CC5)CC4)cc3OC)nc2N1C1CCCC1 (stereo partly drawn) [Compound 2, 4-(((R)-8-cyclopentyl-7-ethyl-5-methyl-6-oxo-5,6,7,8-tetrahydropteridin-2-yl)amino)-N-((1r,4R)-4-(4-(((4-(2,6-dioxopiperidin-3-yl)phenyl)amino)methyl)piperidin-1-yl)cyclohexyl)-3-methoxybenzamide] | 0.129 | < 20 nM | < 20 nM |
| CC[C@@H]1C(=O)N(C)c2cnc(Nc3ccc(C(=O)NC4CCN(C(=O)CCN5CCN(c6ccc(NC7CCC(=O)NC7=O)cc6)CC5)CC4)cc3OC(F)(F)F)nc2N1C1CCCC1 (stereo partly drawn) [Compound 14, 4-(((R)-8-cyclopentyl-7-ethyl-5-methyl-6-oxo-5,6,7,8-tetrahydropteridin-2-yl)amino)-N-(1-(3-(4-(4-((2,6-dioxopiperidin-3-yl)amino)phenyl)piperazin-1-yl)propanoyl)piperidin-4-yl)-3-(trifluoromethoxy)benzamide] | 0.269 | ≤ 50 nM | < 20 nM |
| CC[C@@H]1C(=O)N(C)c2cnc(Nc3ccc(-c4nnc(CNC5CCC(NCC6CCN(c7ccc(C8CCC(=O)NC8=O)cc7F)CC6)CC5)o4)cc3OC)nc2N1C1CCCC1 (stereo partly drawn) [Compound 17, 3-(4-(4-((((1r,4r)-4-(((5-(4-(((R)-8-cyclopentyl-7-ethyl-5-methyl-6-oxo-5,6,7,8-tetrahydropteridin-2-yl)amino)-3-methoxyphenyl)-1,3,4-oxadiazol-2-yl)methyl)amino)cyclohexyl)amino)methyl)piperidin-1-yl)-3-fluorophenyl)piperidine-2,6-dione] | 0.172 | ≤ 50 nM | < 20 nM |
| CC[C@@H]1C(=O)N(C)c2cnc(Nc3ccc(C(=O)NC4CCC(N5CCN(CCCc6ccc(NC7CCC(=O)NC7=O)cc6)CC5)CC4)cc3OC)nc2N1C1CCCC1 (stereo partly drawn) [Compound 3, 4-(((R)-8-cyclopentyl-7-ethyl-5-methyl-6-oxo-5,6,7,8-tetrahydropteridin-2-yl)amino)-N-((1r,4R)-4-(4-(3-(4-((2,6-dioxopiperidin-3-yl)amino)phenyl)propyl)piperazin-1-yl)cyclohexyl)-3-methoxybenzamide] | 0.253 | < 20 nM | < 20 nM |
